# Reference: US11040952B2, “Phthalazinone compound, method for preparation thereof, pharmaceutical composition thereof, and use thereof” (SHANGHAI INSTITUTE OF MATERIA MEDICA, CHINESE ACADEMY OF …, priority 2017, dated 2021)
# Experiments:
# [1] = MTT assay for cytotoxicity; format: cell-based, Human; settings: human, HepG2.2.15 cells, half (50%) lethal concentration
# Protocol: (§1) Human hepatoblastoma cell line HepG2.2.15 stably transfected with full-length HBV (provided by Shanghai Institute of Materia Medica, Chinese Academy of Sciences)
# (§2) HepG2.2.15 cells were cultured and passaged according to conventional methods. DMEM containing 10% (v/v) bovine serum and the selective antibiotic G418 was used as a medium, the cells were cultured in an incubator at 37° C. under 5% CO2 for 8 days (the medium was exchanged on the 4th day).
# (§3) The test compounds were formulated with DMSO into a 40 mM stock solution, which was then prepared into a solution at the defined highest concentration using a DMEM medium containing 10% Hyclone™ Fetal Bovine Serum, followed by diluting the same; the positive drug was lamivudine, which was also prepared into a solution at the defined concentration with the DMEM medium containing 10% Hyclone™ Fetal Bovine Serum.
# HepG2.2.15 cells were seeded at 5×10^3 cells/well in a 96-well plate, and cultured for eight days in the presence of the compounds according to the above method, and then 200 μl of the supernatant was taken out, followed by addition of the MTT solution. After 4 hours of culture, a lysate was added. After 12 hours of culture, the OD570 was measured on a microplate reader. By comparing with the absorbance of the control well, the percentage of viable cells was calculated, and CC50, the concentration required for the reduction of cell viability by 50%, was calculated.
# HBV = HBV DNA content in the supernatant of cell culture (real-time PCR); format: cell-based, hepatitis B virus (HBV); settings: Hepatitis B virus, HepG2.2.15, 192 h, inhibition of HBV DNA replication, HepG2.2.15 supernatant, 8 days
# Protocol: as §1, §2, §3
# HepG2.2.15 cells were treated with compounds at different concentrations for 8 days (the medium was exchanged on the 4th day), and the supernatant was aspirated, and the HBV DNA contained in the mature virus particles in the supernatant was quantitated by using a real-time PCR method.
# 1) The supernatant DNA from a 96-well plate, 200 μl/well, was collected, wherein the contents in the duplicate wells were collected into a same EP tube, and centrifuged at 4000 rcf for 5 min, and the supernatant was collected;
# 2) 200 μl of the supernatant was added into a 1.5 ml EP tube, added with 20 μl of proteinase K and 200 μl of Buffer AL (Qiagen, DNeasy® Blood & Tissue Kit), vortexed to be mixed thoroughly, and incubated at 56° C. for 10 min;
# 3) 200 μl of ethanol was added and vortexed to be mixed thoroughly;
# 4) all the liquid obtained from step 3) was added into a DNeasy Mini spin column (Qiagen, DNeasy® Blood & Tissue Kit) placed in a 2 ml waste liquid collection tube, and centrifuged at 6000 rcf for 1 min, and the supernatant was discarded;
# 5) the DNeasy Mini spin column was placed in a new 2 ml waste liquid collection tube, added with 500 μl of Buffer AW1 (Qiagen, DNeasy® Blood & Tissue Kit), and centrifuged at 6000 rcf for 1 min, and the supernatant was discarded;
# 6) the DNeasy Mini spin column was placed in a new 2 ml waste liquid collection tube, added with 500 μl of Buffer AW2, (Qiagen, DNeasy® Blood & Tissue Kit), and centrifuged at 20000 rcf for 3 min, and the supernatant was discarded;
# 7) the DNeasy Mini spin column was placed in anew 1.5 ml EP tube, 50 μl of Buffer AE (Qiagen, DNeasy® Blood & Tissue Kit) was pipetted and directly applied onto the membrane of the DNeasy Mini spin column, which was then left at room temperature for 5 min, and centrifuged at 6000 rcf for 1 min to elute the DNA from the membrane, the DNeasy Mini spin column was discarded, and the DNA sample was collected and stored at −20° C.
# 1) Standard curve: 1e^7-1e^4 IU/ml, the sample amount was 1 μl, a blank well was set so as to check whether the reaction system is polluted or not;
# 2) 1 μl of a DNA sample was added in sequence;
# 3) Addition of enzyme and reaction buffer: two tubes of the reaction solution were first added into the enzyme, mixed well and centrifuged slightly, placed on ice, added with the sample, followed by addition of 19 μl of the enzyme reaction solution, wherein, during the addition, the DNA sample should be sure of not being touched to cause contamination;
# 4) the sample was sealed with a sealing film and centrifuged;
# Stage 2: 10 cycles • Step 1: 93° C., 45 s • Step 2: 55° C., 1 min Stage 3: 45 cycles • Step 1: 93° C., 30 s • Step 2: 55° C., 45 s
# Detection: data were collected after completing the step 2 (55° C., 45 s) of the stage 3.
# The experimental data were processed by using the Origin software and IC50 was calculated.
Compound,CC50 at 8 days [1] [µM],IC50 (HBV) [µM]
COCCCNc1ccc(-c2nn(Cc3ccc(C#N)cc3)c(=O)c3ccccc23)c(F)n1 [IV-32],43.7,0.191
O=c1c2ccccc2c(-c2cc(Cl)cnc2F)nn1Cc1ccc(Cl)cc1 [Compound I-39],> 25,0.21
COCCNc1ccc(-c2nn(Cc3ccc(Cl)cc3)c(=O)c3ccccc23)c(F)n1 [IV-28],21.3,0.191
COCCOc1ccc(-c2nn(Cc3ccc(C#N)cc3)c(=O)c3ccccc23)c(F)n1 [IV-31],109,0.452
O=c1c2ccccc2c(-c2ccc(C3CC3)nc2F)nn1Cc1ccc(Cl)cc1 [Compound I-31],> 100,0.6
CC(C)(C)OC(=O)CCNc1ccc(-c2nn(Cc3ccc(C#N)cc3)c(=O)c3ccccc23)c(F)n1 [IV-61],195,0.465
CC(C)(C)OC(=O)CCNc1nc(F)c(-c2nn(Cc3ccc(C#N)cc3)c(=O)c3ccccc23)cc1Cl [IV-62],> 100,0.445
N#Cc1ccc(Cn2nc(-c3ccc(N)nc3C#N)c3ccccc3c2=O)cc1 [IV-7],> 100,0.8
N#Cc1ccc(Cn2nc(-c3cc(Cl)c(NCCOCC(=O)O)nc3F)c3ccccc3c2=O)cc1 [IV-60],> 100,0.766
[2H]C([2H])(NC)c1ccc(-c2nn(Cc3ccc(Cl)cc3)c(=O)c3ccccc23)c(F)n1 [Compound I-38],81,0.8
COCCOCCOCCNc1nc(F)c(-c2nn(Cc3ccc(C#N)cc3)c(=O)c3ccccc23)cc1Cl [IV-50],> 100,0.00965
Cc1ccc(-c2nn(Cc3ccc(Cl)cc3)c(=O)c3cc(C(F)(F)F)c(C(F)(F)F)cc23)c(F)n1 [Compound V-9],> 100,1.3
CC(C)(C)OC(=O)COCCNc1ccc(-c2nn(Cc3ccc(C#N)cc3)c(=O)c3ccccc23)c(F)n1 [IV-58],> 100,5.3
COc1cc2c(-c3ccc(C)nc3F)nn(Cc3ccc(C#N)cc3)c(=O)c2cc1OC [Compound V-12],> 100,4.5
CCNCCNc1ccc(-c2nn(Cc3ccc(C#N)cc3)c(=O)c3ccccc23)c(F)n1 [IV-47],13,1.72
CC(C)(C)Nc1ccc(-c2nn(Cc3ccc(Cl)cc3)c(=O)c3ccccc23)c(F)n1 [Compound I-14],10.3,2.1
Cc1ccc(-c2nn(Cc3ccc(Cl)cc3)c(=O)c3ccc(F)cc23)c(F)n1 [Compound V-1],> 100,0.7
O=c1c2ccccc2c(-c2ccncc2)nn1Cc1ccc(Cl)cc1 [Compound I-1],> 100,7.3
CN(C)CCCNc1ccc(-c2nn(Cc3ccc(C#N)cc3)c(=O)c3ccccc23)c(F)n1 [IV-39],18.4,0.684
N#Cc1ccc(Cn2nc(-c3ccc(NCCO)nc3F)c3ccccc3c2=O)cc1 [IV-76],> 100,0.202
N#Cc1ccc(Cn2nc(-c3ccc(NC4COC4)nc3F)c3ccccc3c2=O)cc1 [IV-16],88.3,1

Compound,CC50 at 8 days [1] [µM],IC50 (HBV) [µM]
CC1(C)OCC(CNc2ccc(-c3nn(Cc4ccc(C#N)cc4)c(=O)c4ccccc34)c(F)n2)O1 (stereo not shown) [IV-78],> 100,0.341
CC(O)CNc1nc(F)c(-c2nn(Cc3ccc(C#N)cc3)c(=O)c3ccccc23)cc1Cl (stereo not shown) [IV-82],71.9,0.209
CCOC(=O)CCCNc1ccc(-c2nn(Cc3ccc(C#N)cc3)c(=O)c3ccccc23)c(F)n1 [IV-35],> 100,1.23
CN(C)CCCCNc1ccc(-c2nn(Cc3ccc(C#N)cc3)c(=O)c3ccccc23)c(F)n1 [IV-40],18.6,0.66
CN(C)c1ccc(-c2nn(Cc3ccc(C#N)cc3)c(=O)c3ccccc23)c(F)n1 [IV-9],> 100,1.3
Cc1ccc(-c2nn(Cc3ccc(C#N)cc3)c(=O)c3cc(C)c(C)cc23)c(F)n1 [Compound V-11],> 100,1.2
COCCNc1nc(F)c(-c2nn(Cc3ccc(C#N)cc3)c(=O)c3ccccc23)cc1Cl [IV-27],> 100,0.0142
CN(C)CCNc1nc(F)c(-c2nn(Cc3ccc(C#N)cc3)c(=O)c3ccccc23)cc1Cl [IV-38],9.76,0.343
N#Cc1ccc(Cn2nc(-c3cc(Cl)c(NCCCCO)nc3F)c3ccccc3c2=O)cc1 [IV-69],25,0.0081
[2H]C(c1ccc(C#N)cc1)n1nc(-c2ccc(F)nc2F)c2ccccc2c1=O (stereo not shown) [IV-17],> 100,0.13
CCNCCCNc1ccc(-c2nn(Cc3ccc(C#N)cc3)c(=O)c3ccccc23)c(F)n1 [IV-53],18.1,1.07
N#Cc1ncc(-c2nn(Cc3ccc(Cl)cc3)c(=O)c3ccccc23)cn1 [II-2],32.4,4.5
N#Cc1ccc(Cn2nc(-c3ccc(NCCC(F)(F)F)nc3F)c3ccccc3c2=O)cc1 [IV-83],> 100,0.413
N#Cc1ccc(Cn2nc(-c3cc(Cl)c(NCCO)nc3F)c3ccccc3c2=O)cc1 [IV-77],32.1,0.0277
N#Cc1ccc(Cn2nc(-c3cc(Cl)c(NCCCO)nc3F)c3ccccc3c2=O)cc1 [IV-67],> 100,0.0042
N#Cc1ccc(Cn2nc(-c3cccnc3)c3ccccc3c2=O)cc1 [IV-1],> 100,5.4
CCOC(=O)CCNc1nc(F)c(-c2nn(Cc3ccc(C#N)cc3)c(=O)c3ccccc23)cc1Cl [IV-71],> 100,2.78
N#Cc1ccc(Cn2nc(-c3cc(Cl)cnc3F)c3ccccc3c2=O)c(F)c1 [Compound I-42],33.5,0.378
N#Cc1ccc(Cn2nc(-c3cccnc3C#N)c3ccccc3c2=O)cc1 [IV-4],> 100,3.3
O=c1c2ccccc2c(-c2ccc(NC3COC3)nc2F)nn1Cc1ccc(Cl)cc1 [Compound I-17],> 100,1.6
